Results from paper PMC12074337, “Isolation and Characterization of Earthworm Peptides with Neuroprotective Effects in Parkinson’s Disease Models” (Molecules, 2025).
Like-named read-outs stand apart in the source and are kept apart here. Blank lines part the entries; values can stand above or below the molecule they belong to. No end group written: not given here.

What was measured:
PINK1^B9 flies [1] = test system: PINK1^B9 flies; parameters: method as in PMID 30248358; conditions: cited from earlier work
PINK1 = target: T1, PINK1 (Tribolium castaneum, UniProt D6WMX4); assay: biochemical; assay type: biochemical; conditions: for PINK1 agonistic rate: 100 μM
T1 construct: made in house
T1 sequence (D6WMX4 6-570): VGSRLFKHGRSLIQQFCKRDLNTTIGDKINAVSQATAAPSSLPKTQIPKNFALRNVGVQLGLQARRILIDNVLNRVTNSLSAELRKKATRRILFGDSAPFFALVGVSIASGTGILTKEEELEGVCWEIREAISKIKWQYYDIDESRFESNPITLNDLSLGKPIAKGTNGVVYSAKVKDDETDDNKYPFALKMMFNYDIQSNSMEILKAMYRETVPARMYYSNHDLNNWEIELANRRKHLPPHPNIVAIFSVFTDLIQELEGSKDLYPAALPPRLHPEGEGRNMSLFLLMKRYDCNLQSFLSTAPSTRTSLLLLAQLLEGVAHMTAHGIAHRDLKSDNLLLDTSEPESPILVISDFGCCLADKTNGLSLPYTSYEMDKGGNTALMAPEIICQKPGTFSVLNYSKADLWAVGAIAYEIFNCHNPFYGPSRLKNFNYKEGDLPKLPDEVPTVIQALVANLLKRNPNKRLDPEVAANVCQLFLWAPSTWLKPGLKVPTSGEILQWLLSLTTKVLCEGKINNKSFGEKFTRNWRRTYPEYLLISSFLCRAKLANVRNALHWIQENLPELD
Description: The earthworms (Lumbricus terrestris) were purchased from Beijing Tongrentang Co., Ltd. (Chengdu, China). They were dried by the supplier through sun-drying and stored at 4 °C. The shelf life is one year. Rasagiline was purchased from Aladdin Biochemical Technology Co., Ltd. (Shanghai, China). Resveratrol was purchased from Pusi Biotechnology Co., Ltd. (Chengdu, China). The SH-SY5Y cells were obtained from the National Collection of Authenticated Cell Cultures (Shanghai, China). […] Dulbecco’s modified Eagle’s medium/Ham’s F-12 (DMEM/F12), fetal bovine serum (FBS), and phosphate-buffered saline (PBS) were purchased from Biological Industries (Kibbutz Beit HaEmek, Israel). Fluorescein diacetate (FDA), propidium iodide (PI) staining and mitochondrial membrane potential test kit (JC-1) were purchased from Beijing Solarbio Science & Technology Co., Ltd. (Beijing, China). Cell Counting Kit-8 (CCK-8) was purchased from Bimake Co., Ltd. (Shanghai, China). PrimeScript RT reagent kit and PerfectStart Green PCR Master Mix were purchased from TransGen Biotech (Beijing, China). […] The Kinase-Lumi™ Luminescent Kinase Assay Kit and ATP Assay Kit were purchased from Beyotime Biotechnology Co., Ltd. (Wuhan, China). The Insect dopamine (DA) ELISA Kit was purchased from Jiangsu Meimian Industrial Co., Ltd. (Yancheng, Jiangsu, China). HPLC-grade methanol was supplied by XLJ (Yunnan, China). Ultrapure water used in the experiment was prepared using a UP water purification (18.25 MΩ) system (Chengdu, China). Unless otherwise specified, chemicals and solvents were purchased from Kelong Chemical Reagents Factory (Chengdu, China).
The PINK1 activity assay was conducted with certain modifications based on the described by. Ubiquitin is a potent substrate for PINK1, which catalyzes the phosphorylation of ubiquitin while consuming ATP [33]. During the reaction, the consumption of ATP is associated with PINK1 activity. […] The enzymatic reaction was conducted on a white 96-well plate, with all samples dissolved in a buffer solution containing 50 mM Tris-HCl (pH = 7.5), 0.1 mM EDTA, 10 mM MgCl2, and 4% 2-hydroxy-1-ethanethiol. Subsequently, 10 μL of peptide sample, 10 μL of PINK1 (6.8 μM), 10 μL of ubiquitin (0.002 pg/mL), and 20 μL of ATP (10 μM) were added to the plate for incubation at a temperature of 25 °C for a duration of ten minutes. In addition, the blank control group replaces the peptide with a buffer solution. The resveratrol was employed as a positive control. The amount of ATP consumed was detected using the Kinase-Lumi™ Luminescent Kinase Assay Kit. The PINK1 agonistic rate was calculated by the following equation:(1) PINK1 agonistic rate (%)=(1−A−B/C−D)×100% where A represents the absorbance of the sample group consisting of the sample, PINK1, ubiquitin, and ATP; B represents the absorbance of the sample control group consisting of the sample, PINK1, and ubiquitin; C represents the absorbance of the control group consisting of PINK1, ubiquitin, and ATP; D represents the absorbance of the blank control group consisting of PINK1 and ubiquitin. The EC50 of each peptide was calculated using GraphPad Prism, version 10.0.2 software.

PINK1^B9 flies [2] = assay: Lifespan of PINK1^B9 flies; assay type: in vivo, Drosophila; conditions: 1 mM in medium, male flies
Description: The flies were cultured on a conventional fly medium under controlled conditions of 25 ± 1 °C and 60% relative humidity. The traditional medium for cultivating flies was prepared by boiling 90 g of yeast, 240 g of corn flour, 32 g of agar, 189 g of glucose, and 98 g of sucrose, as well as adding a preservative solution consisting of 25 mL of a 10% methyl-4-hydroxybenzoate in distilled water to make a final volume of 3.5 L. The experimental medium was prepared by supplementing formula 4–24 instant Drosophila medium (Carolina Biological Supply Company, Burlington, NC, USA) with a concentration of 0.1 mM peptide. Male individuals of both wild-type (WT) and PINK1^B9 flies were collected for subsequent experiments.
The newly hatched male WT flies and male PINK1^B9 mutants were collected simultaneously, followed by their division into four groups with 4 bottles per group and 40 flies per bottle. The first group was provided with WT flies and fed with formula 4–24 instant drosophila medium. The second group consisted of PINK1^B9 flies and was also fed with formula 4–24 instant drosophila medium. The third group comprised PINK1^B9 flies and received formula 4–24 instant drosophila medium supplemented with 0.1 mM peptide. […] Fresh medium was replaced every 2–3 days, while the number of flies was recorded daily.

[3] = test system: MPP^+-damaged SH-SY5Y cells; assay: CCK-8 viability, neuroprotection of MPP+-damaged SH-SY5Y cells; assay type: cell-based, human; conditions: 100 μM
Description: The SH-SY5Y human neuroblastoma cell line is extensively employed as a prominent cellular model for PD [31]. The neuroprotective effect of earthworm peptides against the MPP^+-damaged SH-SHY5Y cell model was evaluated using the CCK-8 method. First, the SH-SHY5Y cells were cultured in DMEM/F12 medium supplemented with 10% fetal bovine serum (FBS) and 1% penicillin–streptomycin, and they were maintained at a temperature of 37 °C with a CO2 concentration of 5% in a humidified atmosphere. The SH-SHY5Y cells were seeded into 96-well plates at a density of 1 × 10^4 cells per well, followed by incubation at 37 °C for 24 h. Subsequently, the initial medium was carefully aspirated. The peptide samples were dissolved in DMSO to prepare a high-concentration stock solution and then diluted to the required concentration (10, 25, 50, 100, and 150 μM), prepared using a medium, where they were subsequently introduced into the well and incubated at 37 °C for a duration of 2 h. Then, the cells were treated with MPP^+ (2 mM) per well for an additional 24 h. […] Following the completion of the experiment, the 96-well plate was extracted, and the absorbance was measured at 450nm by the […] GO spectrophotometric plate reader (Thermo Scientific, Waltham, MA, USA). The data were analyzed using GraphPad Prism, version 6.0.

inflammatory enzymes = conditions: in vitro and in vivo; cited from earlier work
Excerpt: (§1) Earthworm is used in traditional Chinese medicine as an animal-derived remedy. Its protein content and amino acid composition are better than those of fish, cow milk, and soybean meal. […] Moreover, its essential amino acid utilization rate is higher in the body and is more readily assimilated by the human system. Therefore, it is used as a supplement in animal feed and human food. Earthworm has been recorded in the Chinese medical classics of “ ...

SH-SY5Y cells = conditions: cited from earlier work
Excerpt: as §1

[4] = target: PTEN-induced putative kinase 1 (PINK1) (UniProt D6WMX4)
[5] = ubiquitin substrate, 10 μM ATP, pH 7.5 Tris-HCl, 25 °C, 10 min, residual ATP luminescence, mean ± SD (n = 3)

Molecule: Oc1ccc(/C=C/c2cc(O)cc(O)c2)cc1 [Resveratrol, resveratrol]
- lifespan of PINK1^B9 flies (in words) (PINK1^B9 flies [1]; 0.2 mM resveratrol): no significant effect
- lifespan of PINK1^B9 flies (in words) (PINK1^B9 flies [1]; 1 mM resveratrol): effective in extending the lifespan
- PINK1 agonistic rate (PINK1; [5]): 91.45 ± 0.34%
- EC50 (PINK1; ubiquitin substrate, 10 μM ATP, pH 7.5 Tris-HCl, 25 °C, 10 min, residual ATP luminescence, mean ± SD (n = 3), read-out: EC50, PINK1 agonistic activity): 13.8 ± 0.58 µM
- lifespan extension of PINK1^B9 flies (PINK1^B9 flies [2]): 23.33%

Molecule: AGFAGDDAPR [peptide identified from earthworm (Lumbricus terrestris), synthesized by solid phase]
- PINK1 agonistic rate (PINK1; [5]): 33.45 ± 0.45%

Molecule: AVFPSIVGR
- cell viability (restored to) ([3]; 2 h pre-incubation, then 2 mM MPP^+ 24 h, 37 °C, CCK-8, absorbance 450 nm, n = 3): 68.77%
- EC50 (PINK1): 88.5 ± 0.97 µM
- PINK1 agonistic rate (PINK1; [5]): 50.35 ± 0.72%

Molecule: GYSFTTTAER
- cell viability (restored to) ([3]; 2 h): 70.08%
- EC50 (PINK1): 76.8 ± 1.3 µM
- PINK1 agonistic rate (PINK1; [5]): 52.46 ± 0.96%

Molecule: ILLIILI [peptide identified from earthworm (Lumbricus terrestris), synthesized by solid phase]
- PINK1 agonistic rate (PINK1; [5]): 17.16 ± 0.55%

Molecule: QLICWRRFR [LumA5, lumbricusin analog 5]
- expression of lip-induced inflammatory enzymes (inflammatory enzymes): significantly reduce
- viability of SH-SY5Y cells (SH-SY5Y cells): improved

Molecule: RNRRWCIDQQA [lumbricusin, antimicrobial peptide derived from earthworm]
- apoptosis and decreased viability induced by MPP^+ (SH-SY5Y cells; SH-SY5Y): inhibits
- SH-SY5Y cell proliferation (SH-SY5Y cells): promotes

- EC50 of PINK1 agonistic activity; ATP consumed by purified PINK1 with ubiquitin as substrate (Kinase-Lumi luminescent kinase assay) [4]: 88.5 µM
- PINK1 agonistic rate (%) at 100 μM peptide; ATP consumed by purified PINK1 with ubiquitin as substrate (Kinase-Lumi luminescent kinase assay) [4]: 50.4%
Molecule: AVFPSIVGR

- EC50 of PINK1 agonistic activity; ATP consumed by purified PINK1 with ubiquitin as substrate (Kinase-Lumi luminescent kinase assay) [4]: 76.8 µM
- PINK1 agonistic rate (%) at 100 μM peptide; ATP consumed by purified PINK1 with ubiquitin as substrate (Kinase-Lumi luminescent kinase assay) [4]: 52.5%
Molecule: GYSFTTTAER

- PINK1 agonistic rate (%) at 100 μM peptide; ATP consumed by purified PINK1 with ubiquitin as substrate (Kinase-Lumi luminescent kinase assay) [4]: 33.5%
Molecule: AGFAGDDAPR

- PINK1 agonistic rate (%) at 100 μM peptide; ATP consumed by purified PINK1 with ubiquitin as substrate (Kinase-Lumi luminescent kinase assay) [4]: 17.2%
Molecule: ILLIILI
